Solubility in water data for one molecule are collected here from US7612072B2, “Amorphous form of a phosphoric acid salt of a dipeptidyl peptidase-IV inhibitor” (Merck & Co., Inc., priority 2004, dated 2009).

The nature of the data set: Solubility in water of the amorphous form. It is filed as physicochemical.

Regarding `N[C@@H](CC(=O)N1CCn2c(nnc2C(F)(F)F)C1)Cc1cc(F)c(F)cc1F` [Compound I, (2R)-4-oxo-4-[3-(trifluoromethyl)-5,6-dihydro[1,2,4]triazolo[4,3-α]pyrazin-7(8H)-yl]-1-(2,4,5-trifluorophenyl)butan-2-amine dihydrogenphosphate], the solubility in water result is reported as “high solubility in water”.
